This test has as its system carrageenan foot edema. Briefly: Rat Carrageenan Foot Pad Edema Test. The settings on record: @ 10 mg/kg body weight, oral, 3 h after carrageenan injection, read-out: RAT PAW EDEMA % Inhibition. In kind it is in vivo, Male Sprague-Dawley rats. Background: In the carrageenan paw model, swelling and tenderness develop within hours.

Structures are written as SMILES.

Description: One hour later a subplantar injection of 0.1 mL of 1% solution of carrageenan/sterile 0.9% saline was administered and the volume of the injected foot was measured with a displacement plethysmometer connected to a pressure transducer with a digital indicator.

Turning to `CS(=O)(=O)c1ccc(C2=C(c3ccc(F)cc3)CCC2)cc1` [Example 1, 1-[2-(4-fluorophenyl)cyclopenten-1-yl]-4-(methylsulfonyl)benzene], the inhibition in vivo at 10 mg/kg was 33%.

These data come from US5420287A, “1,2 diarylcyclopentenyl compounds for the treatment of inflammation” (G. D. Searle & Co., priority 1994, dated 1995).
